According to patent US20080176906A1, “Substituted Pyrrole Derivative” (Takeda Pharmaceutical Company Limited, priority 2004, published 2008):
Numbering of substitutions follows the chain as printed.

Key:
[1] = target: T1, wild-type androgen receptor (AR) (Homo sapiens, UniProt P10275); experiment: AR binding inhibitory test (wild type); conditions: 1 μM compound, 3 nM miboleron, 4° C. for 3 hours, dextran/charcoal B/F separation; read-out: Inhibitory rate (%) at 1 μM, Wild type
T1 sequence (P10275 1-920): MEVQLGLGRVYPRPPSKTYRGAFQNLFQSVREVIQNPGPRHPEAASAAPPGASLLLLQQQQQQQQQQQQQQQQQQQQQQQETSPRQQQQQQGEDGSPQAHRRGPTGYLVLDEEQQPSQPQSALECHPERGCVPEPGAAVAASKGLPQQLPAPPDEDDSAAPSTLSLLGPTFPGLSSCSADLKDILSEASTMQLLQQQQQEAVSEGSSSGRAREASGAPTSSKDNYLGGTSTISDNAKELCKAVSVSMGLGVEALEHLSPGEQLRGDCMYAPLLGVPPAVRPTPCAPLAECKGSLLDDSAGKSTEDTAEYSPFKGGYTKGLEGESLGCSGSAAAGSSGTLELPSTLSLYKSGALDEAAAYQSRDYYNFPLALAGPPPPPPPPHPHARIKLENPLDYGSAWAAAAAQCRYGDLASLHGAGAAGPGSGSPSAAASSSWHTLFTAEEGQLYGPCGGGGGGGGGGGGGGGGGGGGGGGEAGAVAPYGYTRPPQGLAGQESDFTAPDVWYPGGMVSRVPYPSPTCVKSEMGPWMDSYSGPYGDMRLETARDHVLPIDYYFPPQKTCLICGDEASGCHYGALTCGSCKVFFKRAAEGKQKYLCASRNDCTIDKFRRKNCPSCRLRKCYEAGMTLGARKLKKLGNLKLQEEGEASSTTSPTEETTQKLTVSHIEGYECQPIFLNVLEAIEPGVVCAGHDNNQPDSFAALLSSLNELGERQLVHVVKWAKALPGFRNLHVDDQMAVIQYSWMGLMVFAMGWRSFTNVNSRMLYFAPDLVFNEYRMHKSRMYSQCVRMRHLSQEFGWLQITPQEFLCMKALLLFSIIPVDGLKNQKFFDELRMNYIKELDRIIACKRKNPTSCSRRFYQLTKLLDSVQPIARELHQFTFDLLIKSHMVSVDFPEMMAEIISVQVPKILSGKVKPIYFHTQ
Method: (§1) 3 nM miboleron and 1 μM of a compound was added to a solution containing a wild-type androgen receptor (AR) or an androgen receptor (AR) having a LNCaP type mutation, this was incubated at 4° C. for 3 hours, and B(Bound)/F(Free) separation was performed by a dextran/charcoal method. A label count of B was measured, and an inhibition rate of the compound was calculated.

[2] = target: T2, mutated AR (W741C) (Homo sapiens, UniProt P10275, W742C); experiment: AR transcription inhibition test (luciferase reporter in Cos-7); assay type: cell-based; conditions: 0.1 μM compound, DHT 0.04 μM, 24 hours, luciferase activity, relative to a control
T2 construct: expressed in transfected cells; host or cells: Cos-7
T2 sequence (P10275 1-920 W742C): T1 sequence (P10275 1-920) with W742C
Method: 5,000,000 Cells of Cos-7 was inoculated on a flask, and cultured in a culturing solution (DMEM+10% Dextran Charcoal (DCC)-Fetal Bovine Serum (FBS)+2 mM glutamine) for 24 hours, and a vector DNA in which mutated AR (W741C) had been inserted, and a vector DNA in which a luciferase gene had been connected downstream of an androgen-responsive promoter were transfected by a liposome method. After two hours, the medium was exchanged, the cells were cultured for 3 hours, DHT (dihydrotestosterone) having the final concentration of 0.04 μM and an assessment compound having the final concentration of 0.1 μM were added, and the cells were cultured for 24 hours, and luciferase activity was measured to investigate AR transcription inhibition activity of the assessment compound.

[3] = target: T3, androgen receptor (AR) having a LNCaP type mutation (Homo sapiens, UniProt P10275, T878A); experiment: AR binding inhibitory test (LNCaP type); conditions: 1 μM compound, 3 nM miboleron, 4° C. for 3 hours, dextran/charcoal B/F separation; read-out: Inhibitory rate (%) at 1 μM, LNCaP type
T3 sequence (P10275 1-920 T878A): T1 sequence (P10275 1-920) with T878A
Method: as §1

[4] = test system: human prostate cancer cell LNCaP-FGC; experiment: Prostate specific antigen (PSA) production inhibition in prostate cancer cell; assay type: cell-based; conditions: 72 h, 1 μM compound, testosterone 1 ng/mL, three days, PSA in culture supernatant by ELISA, testosterone non-added group 100%, testosterone-added group 0%, read-out: PSA production Inhibitory rate (%) at 1 μM
Method: A human prostate cancer cell LNCaP-FGC was inoculated on a 96-well plate at 5000 cells/100 μL/well and, on the next day, testosterone having the final concentration of 1 ng/mL and 1 μM of a compound were added. Three days after addition, the PSA concentration in the culture supernatant was measured by ELISA, and a PSA production inhibition rate was calculated, letting the rate of a testosterone non-added group to be 100%, and letting the rate of a testosterone-added group to be 0%.

[5] = test system: mouse prostate; experiment: Test of reduction in weight of mouse prostate; assay type: in vivo; conditions: 8 week old male mouse, drug non-addition 0%, castration 100%
From the text: A rate of reduction in a prostate weight is shown in Table 5, letting at drug non-addition to be 0%, and letting at castration to be 100%.

| inhibition at 1 µM [1] [%] | AR transcription Inhibitory rate (%) at 0.1 μM [2] [%] | inhibition at 1 µM [3] [%] | Structure (SMILES) | inhibition at 1 µM [4] [%] | Reduction rate (%) of prostate weight ([5]; orally 50 mg/kg/day for 7 days) [%] | Reduction rate (%) of prostate weight ([5]; orally 100 mg/kg/day (bicalutamide) for 7 days) [%] |
| --- | --- | --- | --- | --- | --- | --- |
| 99 | 30 | 94 | CCc1c(C#N)c(-c2ccc(C#N)cc2)c(C)n1Cc1cnc(Cl)c(CO)c1 [Compound 2, 1-{[6-Chloro-5-(hydroxymethyl)pyridin-3-yl]methyl}-4-(4-cyanophenyl)-2-ethyl-5-methyl-1H-pyrrole-3-carbonitrile] | 95 | – | – |
| 96 | 78 | 99 | CCCc1c(C#N)c(-c2ccc(C#N)cc2)c(C)n1Cc1cnc(Cl)c(CO)c1 [Compound 3, 1-{[6-Chloro-5-(hydroxymethyl)pyridin-3-yl]methyl}-4-(4-cyanophenyl)-5-methyl-2-propyl-1H-pyrrole-3-carbonitrile] | 99 | – | – |
| 98 | 78 | 96 | Cc1c(-c2ccc(C#N)cc2)c(C#N)c(C2CC2)n1Cc1cnc(Cl)c(CO)c1 [Compound 5, 1-{[6-Chloro-5-(hydroxymethyl)pyridin-3-yl]methyl}-4-(4-cyanophenyl)-2-cyclopropyl-5-methyl-1H-pyrrole-3-carbonitrile] | 99 | – | – |
| – | – | – | Cc1c(C#N)c(-c2cccc(C#N)c2)c(C)n1Cc1cnc(Cl)c(CO)c1 [Compound 7, 1-{[6-Chloro-5-(hydroxymethyl)pyridin-3-yl]methyl}-4-(3-cyanophenyl)-2,5-dimethyl-1H-pyrrole-3-carbonitrile] | 94 | – | – |
| 98 | 53 | 93 | Cc1c(C#N)c(-c2ccc(C#N)cc2)c(C)n1Cc1ccc(Cl)c(CO)c1 [Compound 26, 1-[4-Chloro-3-(hydroxymethyl)benzyl]-4-(4-cyanophenyl)-2,5-dimethyl-1H-pyrrole-3-carbonitrile] | 97 | – | – |
| – | – | – | Cc1c(C#N)c(-c2ccc(C#N)cc2)c(C)n1Cc1cnc(Cl)c(C(O)C(F)(F)F)c1 (stereo not drawn) [Example 38, 1-{[6-Chloro-5-(2,2,2-trifluoro-1-hydroxyethyl)pyridin-3-yl]methyl}-4-(4-cyanophenyl)-2,5-dimethyl-1H-pyrrole-3-carbonitrile] | 94 | 68 | – |
| 86 | – | 89 | Cc1cc(-c2ccc(C#N)cc2)c(C)n1Cc1cnc(Cl)c(CO)c1 [Example 46, 4-(1-{[6-Chloro-5-(hydroxymethyl)pyridin-3-yl]methyl}-2,5-dimethyl-1H-pyrrol-3-yl)benzonitrile] | 95 | – | – |
| 50 | – | 81 | CCc1cc(-c2ccc(C#N)cc2)c(C)n1Cc1cnc(Cl)c(CO)c1 [Example 47, 4-(1-{[6-Chloro-5-(hydroxymethyl)pyridin-3-yl]methyl}-5-ethyl-2-methyl-1H-pyrrol-3-yl)benzonitrile] | – | – | – |
| 30 | – | 87 | Cc1c(-c2ccc(C#N)cc2)cc(C2CC2)n1Cc1cnc(Cl)c(CO)c1 [Example 48, 4-(1-{[6-Chloro-5-(hydroxymethyl)pyridin-3-yl]methyl}-5-cyclopropyl-2-methyl-1H-pyrrol-3-yl)benzonitrile] | 98 | – | – |
| – | – | – | Cc1cc(-c2ccc(C#N)cc2)c(C#N)n1Cc1cnc(Cl)c(CO)c1 [Example 52, 1-{[6-Chloro-5-(hydroxymethyl)pyridin-3-yl]methyl}-3-(4-cyanophenyl)-5-methyl-1H-pyrrole-2-carbonitrile] | 99 | – | – |
| – | – | – | CC(O)(CS(=O)(=O)c1ccc(F)cc1)C(=O)Nc1ccc(C#N)c(C(F)(F)F)c1 (stereo not drawn) [bicalutamide, reference compound] | 58 | – | 40 |
